Test results from US20250283048A1, “PLATELET-ACTIVATING FACTOR BLOCKADE INHIBITS TUMOR GROWTH” (The Johns Hopkins University, priority 2022, published 2025).

How the values were obtained:
Eso26 xenograft = assay: Eso26 EAC cell line xenograft in nude mice; type: in vivo
Method: (§1) Organoid cultures and tissues were fixed overnight in 10% formalin at room temperature. Paraffin-embedded organoids and tissues were serially sectioned into 10-μm slices. Paraffin sections were deparaffinized, rehydrated, followed by either staining for hematoxylin and eosin (H&E), or antigen retrieval in sub-boiling 10-mM sodium citrate buffer pH 6.0 for 10 mins. For immunofluorescence (IF), slides were permeabilized in 0.5% TritonX-100 in PBS and blocked in 1% goat serum in PBS for 30 mins at room temperature. After blocking, slides were incubated with anti-Ki67 (1:200, Abcam) overnight in a humidified chamber at 4° C. Sections were washed by PBST (3 times for 5 mins each) and incubated with Alexa Fluor secondary antibodies (1:500) for 1 hr. After washing with PBST, slides were mounted with Fluoroshied with DAPI (Sigma).
Immunohistochemistry was performed using the automated Bond-Max autostainer by Leica for the following antibodies: AE1/AE3 (1:200, Santa Cruz). Images were acquired with a Lecia Inverted Confocal SP8 (Johns Hopkins Medicine Ross Imaging Center). Reagents used here are listed in the Key Resources Table.
(§2) All procedures and experimental protocols involving mice were approved by the Animal Experimental Committee of the Johns Hopkins University School of Medicine. For xenotransplantation of organoids, 2×10^6 organoid cells or ESO26 cells resuspended in cold 50% Matrigel were injected into the axillary of nude mice. For the WEB2086 treatment assay, 5 mg/kg.d of WEB2086 or vehicle control (1.25% DMSO in PBS) was administered by intraperitoneal injection every two days for 3 weeks. Xenograft size was measured twice a week. The xenograft volume (V) was monitored by measuring the length (L) and width (W) with a caliper based on the formula V=1/2×(L×W^2). Mice were sacrificed at the end of the experiment, and xenografts were excised for further analyses.

[1] = tested on: TP53/CDKN2A^KO GEJ organoids; assay: Organoid viability assay (WST-1 assay); type: cell-based, human
Method: To quantify metabolically active viable cells, organoids were seeded onto 96-well plates and cultured. At indicated time points, 10 μL per well of Cell Proliferation Reagent WST-1 assay kits were added to the 96-well plates and incubated with organoids for 90 minutes. After incubation, only media was transferred to the wells of a new 96-well plate, which was read at an absorbance of 450 nm by a Thermo Scientific Microplate Reader. All experiments were performed in triplicate.

[2] = molecular target: TP53/CDKN2A^KO GEJ organoids; assay: Ki67 immunofluorescence labeling index; type: cell-based, human; conditions: WEB2086 at various concentrations vs vehicle control (0.1% DMSO); Day 10
Method: as §1

[3] = tested on: TP53/CDKN2A^KO GEJ organoids; assay: Average organoid size by phase-contrast imaging; type: cell-based, human; conditions: WEB2086 at various concentrations vs vehicle control (0.1% DMSO)
Description: (FIG. 4A) mRNA levels of PTAFR in TP53/CDKN2A^KO vs. control GEJ organoids (left) and normal GEJ vs. EAC tissues. (FIG. 4B) Knockdown of PTAFR mRNA by siRNAs in TP53/CDKN2A^KO GEJ organoids. (FIG. 4C) Average organoid size and (E) cell viability determined by phase-contrast imaging and WST1 assays, respectively. (FIG. 4D) Ki67 labeling images and (FIG. 4E) quantification obtained on Day 7. *P<0.05 vs. same-day siCtrl. Scale bar=100 μm. (FIG. 4F-FIG. 4H) Average organoid size and cell viability (H) determined by phase-contrast imaging and WST1 assays, respectively. (FIG. 4G and FIG. 4H) Ki67 labeling images and quantification obtained on Day 10. Scale bar=100 μm. *P<0.05 vs Ctrl-DMSO on the same day; +, P<0.05 vs. WEB 10 μM on the same day; #P<0.05 vs. WEB 15 μM on the same day;
GEJ organoids were established as described in FIG. 1A. Briefly, fresh endoscopic GEJ biopsies were preserved in ice-cold conditioned PBS (PBS containing 10 μM ROCK inhibitor Y27632, 2% (vol/vol) penicillin/streptomycin, and 1× Primocin) until further processing within 24 hours. After washing biopsies with conditioned PBS at least 5 times, samples were minced into fragments <1 mm^3 using microdissecting scissors. […]
Following centrifugation at 400 g at 4° C. for 3 minutes, pelleted cell clusters were resuspended in Matrigel. […] Culture medium was changed once every three days until the organoids were ready to passage.

[4] = tested on: TP53/CDKN2A^KO GEJ organoids xenograft; assay: Xenotransplantation of TP53/CDKN2A^KO organoid cells in nude mice; type: in vivo; conditions: 5 mg/kg.d intraperitoneal every two days for 3 weeks; 3-month observation; vs 1.25% DMSO
Method: as §2

[5] = WEB2086 5 mg/kg.d intraperitoneal every two days for 3 weeks vs vehicle

With `Cc1nnc2n1-c1sc(CCC(=O)N3CCOCC3)cc1C(c1ccccc1Cl)=NC2` [WEB2086] the EAC xenograft growth (Eso26 xenograft; [5]) was “significant suppression”, the EAC xenograft weight (Eso26 xenograft; [5]) was “significant suppression” and the “Ki67 expression in tumor xenografts (IHC)” value (Eso26 xenograft; WEB2086 treated Eso26 tumor xenografts) was “downregulated expression”. For the same compound, the “metabolically active cells (WST-1), onset of decrease” value ([1]; WEB2086 at various concentrations vs 0.1% DMSO) was “began to decrease on day 4”, the “inhibitory effect on metabolically active cells (WST-1)” value ([1]; WEB2086 at various concentrations, day 7 and 10) was “time- and dose-dependent inhibitory effect” and the Ki-67 labeling index [2] was “significantly reduced”. The organoid size [3] was “significantly reduced” and the tumor formation [4] was “completely prevented tumor formation”.
